Assay results as given in patent publication US20100267561A1, “HERBICIDAL PYRIDAZINONE DERIVATIVES” (priority 2007, published 2010).

Experiments:
Experiment in all cases: Test B pre-/postemergence plant response
Type in all cases: in vivo
[1] = system: Italian ryegrass (Lolium multiflorum)
How it was run: (§1)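 Seeds were sown and sprayed preemergence, while plants at 2 to 18 cm (1- to 4-leaf stage) got postemergence sprays. Compounds were formulated in a non-phytotoxic solvent mixture with surfactant. After 13 to 15 days in a greenhouse, injury was rated visually against untreated controls, 0 (no effect) to 100 (complete control).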

[2] = system: catchweed bedstraw (Galium aparine); conditions: Preemergence
How it was run: as §1

[3] = system: cocklebur (Xanthium strumarium)
How it was run: as §1

[4] = system: common ragweed (Ambrosia elation)
How it was run: as §1

[5] = system: corn (Zea mays)
How it was run: as §1

[6] = system: eastern black (E.B.) nightshade (Solanum ptycanthum); conditions: Preemergence
How it was run: as §1

[7] = system: green foxtail (Setaria viridis)
How it was run: as §1

[8] = system: kochia (Kochia scoparia)
How it was run: as §1

[9] = system: lambsquarters (Chenopodium album)
How it was run: as §1

[10] = system: morningglory (Ipomoea coccinea)
How it was run: as §1

[11] = system: surinam grass (Brachiaria decumbens)
How it was run: as §1

[12] = system: wild oat (Avena fatua)
How it was run: as §1

[13] = system: yellow nutsedge (Cyperus esculentus)
How it was run: as §1

[14] = Postemergence, 31 g ai/ha, scale 0 to 100, 0 no effect, 100 complete control
[15] = Postemergence, 62 g ai/ha, scale 0 to 100
[16] = Postemergence, 125 g ai/ha, scale 0 to 100
[17] = Postemergence, 250 g ai/ha, scale 0 to 100
[18] = Preemergence, 31 g ai/ha, 0 to 100 scale, 0 no effect, 100 complete control
[19] = Preemergence, 62 g ai/ha, scale 0 to 100
[20] = Preemergence, 125 g ai/ha, scale 0 to 100
[21] = Preemergence, 250 g ai/ha, scale 0 to 100
[22] = 31 g ai/ha, 0 to 100 scale, 0 no effect, 100 complete control

SMILES: Cc1cc(-c2ccc(Br)cc2)nn1-c1c(OC(=O)OC(C)C)cnn(C)c1=O [Compound 6]
- Plant response rating, Ryegrass, Italian [1, 14]: 100
- Plant response rating, Ryegrass, Italian [1, 15]: 100
- Plant response rating, Ryegrass, Italian [1, 16]: 100
- Plant response rating, Ryegrass, Italian [1, 17]: 100
- Plant response rating, Ryegrass, Italian [1, 18]: 90
- Plant response rating, Ryegrass, Italian [1, 19]: 100
- Plant response rating, Ryegrass, Italian [1, 20]: 100
- Plant response rating, Ryegrass, Italian [1, 21]: 100
- Plant response rating, Galium [2, 22]: 0
- Plant response rating, Galium ([2]; 125 g ai/ha, scale 0 to 100): 70
- Plant response rating, Galium ([2]; 250 g ai/ha, scale 0 to 100): 70
- Plant response rating, Cocklebur [3, 14]: 0
- Plant response rating, Cocklebur [3, 15]: 0
- Plant response rating, Cocklebur [3, 16]: 0
- Plant response rating, Cocklebur [3, 17]: 40
- Plant response rating, Cocklebur [3, 18]: 0
- Plant response rating, Cocklebur [3, 19]: 0
- Plant response rating, Cocklebur [3, 20]: 0
- Plant response rating, Cocklebur [3, 21]: 0
- Plant response rating, Ragweed [4, 14]: 0
- Plant response rating, Ragweed [4, 15]: 0
- Plant response rating, Ragweed [4, 16]: 0
- Plant response rating, Ragweed [4, 17]: 50
- Plant response rating, Ragweed [4, 18]: 0
- Plant response rating, Ragweed [4, 19]: 0
- Plant response rating, Ragweed [4, 20]: 20
- Plant response rating, Ragweed [4, 21]: 20
- Plant response rating, Corn [5, 14]: 95
- Plant response rating, Corn [5, 15]: 95
- Plant response rating, Corn [5, 16]: 100
- Plant response rating, Corn [5, 17]: 100
- Plant response rating, Corn [5, 18]: 95
- Plant response rating, Corn [5, 19]: 98
- Plant response rating, Corn [5, 20]: 98
- Plant response rating, Corn [5, 21]: 100
- Plant response rating, Nightshade, E. B. [6, 22]: 0
- Plant response rating, Nightshade, E. B. ([6]; 125 g ai/ha, scale 0 to 100): 90
- Plant response rating, Nightshade, E. B. ([6]; 250 g ai/ha, scale 0 to 100): 90
- Plant response rating, Foxtail, Green [7, 14]: 100
- Plant response rating, Foxtail, Green [7, 15]: 100
- Plant response rating, Foxtail, Green [7, 16]: 100
- Plant response rating, Foxtail, Green [7, 17]: 100
- Plant response rating, Foxtail, Green [7, 18]: 100
- Plant response rating, Foxtail, Green [7, 19]: 100
- Plant response rating, Foxtail, Green [7, 20]: 100
- Plant response rating, Foxtail, Green [7, 21]: 100
- Plant response rating, Kochia [8, 14]: 0
- Plant response rating, Kochia [8, 15]: 0
- Plant response rating, Kochia [8, 16]: 20
- Plant response rating, Kochia [8, 17]: 20
- Plant response rating, Kochia [8, 18]: 0
- Plant response rating, Kochia [8, 19]: 0
- Plant response rating, Kochia [8, 20]: 20
- Plant response rating, Kochia [8, 21]: 60
- Plant response rating, Lambsquarters [9, 14]: 0
- Plant response rating, Lambsquarters [9, 15]: 0
- Plant response rating, Lambsquarters [9, 16]: 20
- Plant response rating, Lambsquarters [9, 17]: 70
- Plant response rating, Lambsquarters [9, 18]: 0
- Plant response rating, Lambsquarters [9, 20]: 85
- Plant response rating, Lambsquarters [9, 21]: 95
- Plant response rating, Morningglory [10, 14]: 0
- Plant response rating, Morningglory [10, 15]: 0
- Plant response rating, Morningglory [10, 16]: 0
- Plant response rating, Morningglory [10, 17]: 50
- Plant response rating, Morningglory [10, 18]: 0
- Plant response rating, Morningglory [10, 19]: 0
- Plant response rating, Morningglory [10, 20]: 0
- Plant response rating, Morningglory [10, 21]: 0
- Plant response rating, Surinam Grass [11, 14]: 100
- Plant response rating, Surinam Grass [11, 15]: 100
- Plant response rating, Surinam Grass [11, 16]: 100
- Plant response rating, Surinam Grass [11, 17]: 100
- Plant response rating, Surinam Grass [11, 18]: 98
- Plant response rating, Surinam Grass [11, 19]: 98
- Plant response rating, Surinam Grass [11, 20]: 100
- Plant response rating, Surinam Grass [11, 21]: 100
- Plant response rating, Oat, Wild [12, 14]: 100
- Plant response rating, Oat, Wild [12, 15]: 100
- Plant response rating, Oat, Wild [12, 16]: 100
- Plant response rating, Oat, Wild [12, 17]: 100
- Plant response rating, Oat, Wild [12, 18]: 50
- Plant response rating, Oat, Wild [12, 19]: 50
- Plant response rating, Oat, Wild [12, 20]: 85
- Plant response rating, Oat, Wild [12, 21]: 85
- Plant response rating, Nutsedge, Yellow [13, 14]: 0
- Plant response rating, Nutsedge, Yellow [13, 15]: 0
- Plant response rating, Nutsedge, Yellow [13, 16]: 0
- Plant response rating, Nutsedge, Yellow [13, 17]: 0
- Plant response rating, Nutsedge, Yellow [13, 18]: 0
- Plant response rating, Nutsedge, Yellow [13, 19]: 0
- Plant response rating, Nutsedge, Yellow [13, 20]: 0
- Plant response rating, Nutsedge, Yellow [13, 21]: 0
